Experimental data taken from patent US11518765B2, “Substituted pyrimidine derivatives useful in the treatment of autoimmune diseases” (THE PROVOST, FELLOWS, FOUNDATION SCHOLARS, AND THE OTHER …, priority 2015, dated 2022).

Assays:
Type in all cases: in vivo, mice (C57BL/6)
[1] = test system: chronic monophasic EAE disease in mice; test: chronic monophasic EAE disease in mice, EAE score (disease severity); details: FIG. 1
Procedure: (§1) To assess the potential of these compounds in vivo, a chronic monophasic EAE disease in mice was induced before treatment with the new chemical entity (NCE). EAE Disease was induced in 8-10 week old female mice (C57BL/6) by subcutaneous (s.c.) injection of 200 μl emulsion containing 150 μg […] peptide (Genscript) in Complete Freund's Adjuvant (CFA; containing 5 mg/ml heat-inactivated Mycobacterium tuberculosis). On the same day, mice were administered 500 ng Pertussis Toxin (Kaketsuken, Japan) intraperitoneally (i.p.) and again two days later. Disease severity was recorded every 24 hours: 0-Normal; 1-flaccid tail; 2-imparied/wobbly gait; 3-complete hind limb weakness; 4-hind limb and forelimb paralysis; 5-moribund state/dead. Protocol is based on the Nature Protocols for Active induction of experimental allergic encephalomyelitis, which includes the scoring methodology: • Stromnes I M, Goverman J M (2006) Active induction of experimental allergic encephalomyelitis. Nat Protoc. 1(4):1810-9.
The EAE score relates to an assessment of disease progression with respect to issues like tail paralysis and limb paralysis, a higher score is a worse condition. A score of 1 indicates decreased tail tone, a score of 2 indicates hind leg weakness (paraparesis), a score of 3 indicates hind limb paralysis and/or incontinence. Note that the untreated animals have a continuous and progressive worsening of disease.

[2] = body weight of EAE diseased mice; details: treated EAE animals, FIG. 2
Procedure: as §1
(§2) This contrasts with the sustained drop in body weight of non-treated EAE diseased animals to a level 86.4% that of controls at 21 dpi (17.8 grams versus 20.6 grams). Motor coordination and hind-limb strength were also evaluated by the ability of mice to cross a horizontal bar (FIG. 3). Non-diseased animals crossed the bar with an average time of 4.3±0.57 seconds.

[3] = test system: chronic monophasic EAE disease in mice; test: motor coordination and hind-limb strength: ability of EAE mice to cross a horizontal bar; details: EAE diseased mice, within 4 treatments; FIG. 3
Procedure: as §1, §2

Cl.Nc1nc2[nH]cc(CNCCCc3ccccc3)c2c(=O)[nH]1 [Compound I, N-((2-amino-4-oxo-4,7-dihydro-3H-pyrrolo[2,3-d]pyrimidin-5-yl)methyl)-3-phenylpropan-1-aminium chloride]
EAE scoring after treatment ([1]; 30 mg/kg, i.p., after 4 daily treatments): disease free
time to reversal of symptoms (EAE score) ([1]; highest dosage given, 30 mg/kg, i.p.): ≤ 24 h
disease progression (EAE score) ([1]; lower doses, animals slower to respond): halted and reversed
body weight ([2]; 21 dpi, controls 20.6 grams): 19.9 grams
body weight level relative to controls ([2]; 21 days post inoculation (dpi)): 96.6%
performance crossing a horizontal bar [3]: fully restored the performance of EAE diseased mice to control levels
